Results taken from patent publication US10814115B2, “Microneedle devices and uses thereof” (MASSACHUSETTS INSTITUTE OF TECHNOLOGY, priority 2011, dated 2020).
Where two headings read alike, the source gives them in different places.

Experiments:
[1] = cited from earlier work
[2] = Visualization study: dye injection into 1.5% porcine gelatin with the microneedle prototype device; conditions: 0.025% dye
Protocol: Using porcine gelatin, the effects of a microneedle prototype device was evaluated. Specifically, porcine gelatin was prepared at a concentration of 1.5% to mimic the density of gastrointestinal tissue. The gelatin provided the added benefit of allowing the application site to be visualized. A prototype device filled with a solution of 0.025% allura red dye was applied to the gel and a volume of 100-300 microliters of dye was injected. A second device lacking the needles was also used as a control.
This highlights the efficacy of the microneedle device in deeper tissue penetration of the model drug compared to simple diffusion (simulated by the control device shown in FIGS. 10 A and B).

Yorkshire swine [3] = conditions: 100 units in 10 ml saline enema
Description: In order to evaluate the efficacy of abrasion and drug delivery a Yorkshire swine animal 70 kg in weight was fasted overnight. The animal was sedated and a central venous line was placed for frequent blood sampling. The rectum was cleansed with a tap water enema and an abrasion created in the rectal mucosa.

Yorkshire swine [4] = system: Yorkshire swine
Protocol: Yorkshire swine approximately 70 kg in weight were fasted overnight. The animal was sedated and a femoral venous catheter placed to enable frequent blood sampling for glucose monitoring. An endoscope was introduced orally or rectally depending on the tissue being accessed. Oral access for the stomach and small intestine and rectal access for the colon.
Glucose levels were monitored by frequent blood sampling via the femoral venous catheter with the aid of a glucometer.
This was administered with the use of a Carr-Locke needle which is 500 μm in length and 514 μm in diameter. Frequent blood glucose monitoring was performed via the use of a central line (femoral venous catheter).
To further validate the delivery of biologics at different segment we further evaluated the use of microinjection in the duodenum (the first part of the small intestine). Here the pH ranges from 5.5-7 and there are a broader range of proteases.
This was again administered with the use of the Carr-Locke needle. Frequent blood glucose monitoring was performed via the use of a central line (femoral venous catheter).
This was administered with the use of the microneedle prototype shown previously. Frequent blood glucose monitoring was performed via the use of a central line (femoral venous catheter).

In the case of `CCCC1O[C@@H]2C[C@H]3[C@@H]4CCC5=CC(=O)C=C[C@]5(C)[C@H]4[C@@H](O)C[C@]3(C)[C@]2(C(=O)CO)O1` (some centres unmarked) [Budesonide], the “Known Toxic Levels” value ([1]; in vivo) is listed as 3200 mg/kg.

In the case of `CC[C@H](C)[C@@H]1NC(=O)[C@H](Cc2ccc(O)cc2)NC(=O)[C@@H](N)CSSC[C@@H](C(=O)N2CCC[C@H]2C(=O)N[C@@H](CC(C)C)C(=O)NCC(N)=O)NC(=O)[C@H](CC(N)=O)NC(=O)[C@H](CCC(N)=O)NC1=O` [Oxytocin], the “Known Toxic Levels” value ([1]; in vivo) is listed as >10,000 units/kg.

In the case of `CC[C@H](C)[C@H](NC(=O)[C@@H]1CCCN1C(=O)CNC(=O)[C@H](Cc1ccccc1)NC(=O)[C@H](CC(N)=O)NC(=O)[C@H](CC(N)=O)NC(=O)[C@H](CO)NC(=O)[C@H](CO)NC(=O)[C@H](Cc1c[nH]cn1)NC(=O)[C@@H](NC(=O)[C@H](CC(C)C)NC(=O)[C@H](Cc1ccccc1)NC(=O)[C@H](CC(N)=O)NC(=O)[C@H](C)NC(=O)[C@H](CC(C)C)NC(=O)[C@H](CCCNC(=N)N)NC(=O)[C@H](CCC(N)=O)NC(=O)[C@@H](NC(=O)[C@H](C)NC(=O)[C@@H]1CSSC[C@H](NC(=O)[C@@H](N)CCCCN)C(=O)N[C@@H](CC(N)=O)C(=O)N[C@@H]([C@@H](C)O)C(=O)N[C@@H](C)C(=O)N[C@@H]([C@@H](C)O)C(=O)N1)[C@@H](C)O)C(C)C)C(=O)N[C@@H](CC(C)C)C(=O)N1CCC[C@H]1C(=O)N1CCC[C@H]1C(=O)N[C@H](C(=O)N[C@@H](CC(N)=O)C(=O)N[C@H](C(=O)NCC(=O)N[C@@H](CO)C(=O)N[C@@H](CC(N)=O)C(=O)N[C@H](C(=O)N[C@@H](Cc1ccc(O)cc1)C(N)=O)[C@@H](C)O)C(C)C)[C@@H](C)O` [Pramlintide], the “Known Toxic Levels” value ([1]; in vivo) is given as over 600 µg/kg/day.

With `COc1cc(S(=O)(=O)[O-])c(C)cc1N=Nc1c(O)ccc2cc(S(=O)(=O)[O-])ccc12.[Na+].[Na+]` [allura red dye, allura red] the “Permeation of dye into gel matrix” value ([2]; control device lacking needles) was “expulsion of the dye over the gel surface” and the “Permeation of dye into gel matrix” value ([2]; device with microneedles, 100-300 microliters) was “enabled permeation of the dye into the gel matrix”.

In the case of Erythropoietin, the “Known Toxic Levels” value ([1]; in vivo) is given as >100,000 units.

For Etanercept, the “Known Toxic Levels” value ([1]; in vivo) is listed as over 1000 mg/animal.

In the case of Infliximab, the “Known Toxic Levels” value ([1]; no direct toxic effect observed) is listed as over 20 mg/kg no.

In the case of Rituximab, the “Known Toxic Levels” value ([1]; in vivo) is given as over 5 g/animal.

In the case of insulin aspart, the “Glucose levels after insulin enema” value (Yorkshire swine [3]; absence of an abrasion) is reported as “did not decrease”, the “Time to decrement in serum glucose after administration” value (Yorkshire swine [3]; rectal mucosa with abrasion) is reported as 20 to 30 min and the “Serum glucose level after insulin enema” value (Yorkshire swine [3]; rectal mucosa with abrasion, baseline glucose 80-82 mg/dL) is reported as 60 mg/dL. For the same compound, the “Hypoglycemic response (blood glucose versus post-injection time)” value (Yorkshire swine [4]; colon, 20 units, microneedle prototype, one experiment) was “hypoglycemic response”, the “Hypoglycemic response (blood glucose versus post-injection time)” value (Yorkshire swine [4]; duodenum, 10 units, Carr-Locke needle, one experiment) was “hypoglycemic response” and the “Time to hypoglycemic response after administration” value (Yorkshire swine [4]; insulin injections, stomach, duodenum) was 20 to 40 min. The Hypoglycemic response (Yorkshire swine [4]; insulin release without the use of needles (control, 10 units)) was “did not induce a hypoglycemic (low glucose) response” and the “Hypoglycemic response (blood glucose versus post-injection time)” value (Yorkshire swine [4]; stomach (transgastric), 10 units, Carr-Locke needle, 3 separate experiments) was “hypoglycemic response”.
